For 51 molecules, IC50 results are on record in patent US11802133B2, “Heterocyclic compounds as monoacylglycerol lipase inhibitors” (Hoffmann-La Roche Inc., priority 2018, dated 2023).

Chain of MAGL (recombinant wild-type) (Q99685 whole entry, species assumed): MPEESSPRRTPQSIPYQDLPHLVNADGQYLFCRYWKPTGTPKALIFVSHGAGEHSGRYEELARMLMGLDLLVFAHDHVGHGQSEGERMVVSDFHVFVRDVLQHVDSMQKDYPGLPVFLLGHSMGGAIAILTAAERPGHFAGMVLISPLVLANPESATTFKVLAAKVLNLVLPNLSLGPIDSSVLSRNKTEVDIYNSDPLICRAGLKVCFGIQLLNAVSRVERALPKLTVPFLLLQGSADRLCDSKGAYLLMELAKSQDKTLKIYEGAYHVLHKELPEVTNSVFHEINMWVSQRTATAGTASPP
Chain of MAGL (Q99685 whole entry, species assumed): as above

One test addresses MAGL (Homo sapiens (Human), UniProt Q99685). Nature of the test: 2-AG assay: MAGL inhibitory activity by hydrolysis of 2-arachidonoylglycerol to arachidonic acid (mass spectrometry). The test is classed as biochemical. The following applies: measured in 2-AG assay (footnote [b]); 8 μM 2-arachidonoylglycerol.
`Cc1ccc(COC2CN(C(=O)N3CC[C@@H]4OCC(=O)N[C@@H]4C3)C2)c(C(F)(F)F)c1` [Example 217]: the IC50 was 10 nM.

Take `O=C1CO[C@H]2CCN(C(=O)N3CC(CC(F)(F)c4ccc(C(F)(F)F)cc4)C3)C[C@H]2N1` [Example 281]: the midpoint of inhibition, the IC50, lay at 35 nM.

`O=C1CO[C@H]2CCN(C(=O)N3CC(Oc4ccc(C(F)(F)F)cc4Cl)C3)C[C@H]2N1` [Example 213]: half-maximal inhibition (IC50) was put at 98 nM.

Consider `O=C1CO[C@H]2CCN(C(=O)N3CCC(Oc4ccc(C(F)(F)F)c(C5CC5)c4)CC3)C[C@H]2N1` [Example 208], for which the IC50 was found to be 3 nM.

`O=C1CO[C@H]2CCN(C(=O)N3CCC(Oc4cc(-n5cccn5)cc(C(F)(F)F)c4)CC3)C[C@H]2N1` [Example 201] showed an IC50 of 239 nM.

The next test addresses MAGL (recombinant wild-type) (Homo sapiens (Human), UniProt Q99685). Nature of the test: 4-NPA assay: MAGL inhibitory activity by hydrolysis of 4-nitrophenylacetate (absorbance at 405 nm). In kind it is biochemical. The following applies: measured in 4-NPA assay (footnote [a]); 1 nM MAGL, 300 μM 4-nitrophenylacetate. The method, then:
This assay is hereinafter abbreviated “4-NPA assay”.
The plate was shaked for 1 min at 2000 rpm (Variomag Teleshake) and then incubated for 15 min at RT. […] The final concentrations in the assay were 1 nM MAGL and 300 μM 4-Nitrophenylacetate. […] A second measurement was then done after incubation for 80 min at RT. From the two measurements, the slope was calculated by subtracting the first from the second measurement.
With `O=C1CO[C@H]2CCN(C(=O)N3CCC(Cc4ccc(C(F)(F)F)cc4)CC3)C[C@@H]2N1` [Example 14], the IC50 worked out at 191 nM.

Consider `CC(C)(C)c1csc(CC2CCN(C(=O)N3CC[C@@H]4OCC(=O)N[C@@H]4C3)CC2)n1` (racemic) [Example 3, rac-(4aR,8aS)-6-[4-[(4-tert-Butylthiazol-2-yl)methyl]piperidine-1-carbonyl]-4,4a,5,7,8,8a-hexahydropyrido[4,3-b][1,4]oxazin-3-one], for which the IC50 came out at 66 nM.

In the case of `O=C1CO[C@H]2CCN(C(=O)N3CCC(Cc4ccc(Cl)c(F)c4)CC3)C[C@H]2N1` [Example 33], the IC50 was 4 nM.

Take `O=C1CO[C@H]2CCN(C(=O)N3CCC(Cc4ccc(Cl)cc4)CC3)C[C@H]2N1` [Example 10]: the IC50 was found to be 39 nM.

For `O=C1CO[C@H]2CCN(C(=O)N3CCC(Oc4cccc(C(F)(F)F)c4)CC3)C[C@H]2N1` [Example 44], the IC50 worked out at 38 nM.

`O=C1CO[C@H]2CCN(C(=O)N3CCC(COc4ccc(F)cc4Cl)CC3)C[C@H]2N1` [Example 7]: the IC50 stood at 11 nM.

In the case of `CC1C(OCc2ccc(C(F)(F)F)cc2)CN1C(=O)N1CC[C@@H]2OCC(=O)N[C@@H]2C1` (stereo partly drawn) [Example 117], the IC50 was 10 nM.

With `O=C1CO[C@@H]2CCN(C(=O)N3CCC(Cc4ccc(C(F)(F)F)cc4)CC3)C[C@@H]2N1` [Example 20], the IC50 was determined as 1800 nM.

`O=C1CO[C@H]2CCN(C(=O)N3CC(OCc4ccc(Cl)cc4C(F)(F)F)C3)C[C@H]2N1` [Example 116]: the IC50 came to 4 nM.

As for `CC(C)(C)c1cnn(CC2CCN(C(=O)N3CC[C@@H]4OCC(=O)N[C@@H]4C3)CC2)c1` [Example 66], the IC50 was found to be 351 nM.

`O=C1CO[C@H]2CCN(C(=O)N3CC(COc4ccc(C(F)(F)F)cc4Cl)C3)C[C@H]2N1` [Example 62]: the IC50 was 9 nM.

For the molecule `CC(C)(C)c1csc(CC2CCN(C(=O)N3CC[C@H]4OCC(=O)N[C@H]4C3)CC2)n1` [Example 5], the IC50 came to 1300 nM.

With `O=C1CO[C@H]2CCN(C(=O)N3CCC(COc4ccc(F)cc4C(F)(F)F)CC3)C[C@H]2N1` [Example 51], the IC50 is 10 nM.

With `O=C1CO[C@H]2CCN(C(=O)N3CC(OCc4ccc(C(F)(F)F)c(F)c4)C3)C[C@H]2N1` [Example 114], the IC50 came to 5 nM.

Consider `N#Cc1ccc(CC2CCN(C(=O)N3CC[C@@H]4OCC(=O)N[C@@H]4C3)CC2)cc1` [Example 34, (+)- or (−)-4-[[1-[(4aR,8aS)-3-Oxo-4,4a,5,7,8,8a-hexahydropyrido[4,3-b][1,4]oxazine-6-carbonyl]-4-piperidyl]methyl]benzonitrile], for which the IC50 amounted to 438 nM.

For `O=C1CO[C@H]2CCN(C(=O)N3CCC(Cc4ccc(C(F)(F)F)cc4)CC3)C[C@@H]2N1` [Example 17], the IC50 turned out to be 268 nM.

As for `Cc1cc(F)ccc1OCC1CCN(C(=O)N2CC[C@@H]3OCC(=O)N[C@@H]3C2)CC1` [Example 61], the IC50 is 11 nM.

Regarding `O=C1CO[C@H]2CCN(C(=O)N3CCC(COc4ccc(C(F)(F)F)nc4)CC3)C[C@H]2N1` [Example 43, (4aR,8aS)-6-(4-(((6-(trifluoromethyl)pyridin-3-yl)oxy)methyl)piperidine-1-carbonyl)hexahydro-2H-pyrido[4,3-b][1,4]oxazin-3(4H)-one], the IC50 turned out to be 529 nM.

For the molecule `O=C1CO[C@H]2CCN(C(=O)N3CC(COCc4c(F)cccc4C(F)(F)F)C3)C[C@H]2N1` [Example 102], the IC50 is 22 nM.

For the molecule `O=C1CO[C@H]2CCN(C(=O)N3CCC(Cc4nc(-c5ccccc5)no4)CC3)C[C@H]2N1` [Example 18], the half-maximal inhibitory concentration (IC50) stood at 892 nM.

Turning to `O=C1CO[C@H]2CCN(C(=O)N3CCC(Oc4ccc(C(F)(F)F)cc4Cl)CC3)C[C@H]2N1` [Example 40], the IC50 was 12 nM.

Turning to `O=C1CO[C@H]2CCN(C(=O)N3CCC(COc4ccc(Cl)cc4)C3)C[C@H]2N1` (stereo partly drawn) [Example 96], the IC50 was found to be 293 nM.

With `CC(C)(C)c1csc(CC2CCN(C(=O)N3CC[C@@H]4OCC(=O)N[C@@H]4C3)CC2)n1` [Example 1, (+)-(4aR,8aS)-6-(4-((4-(tert-Butyl)thiazol-2-yl)methyl)piperidine-1-carbonyl)hexahydro-2H-pyrido[4,3-b][1,4]oxazin-3(4H)-one], the IC50 came to 40 nM.

With `CC1(OCc2ccc(C(F)(F)F)cc2F)CN(C(=O)N2CC[C@@H]3OCC(=O)N[C@@H]3C2)C1` [Example 111], the IC50 stood at 20 nM.

Regarding `COc1cc(C(F)(F)F)ccc1COC1CN(C(=O)N2CC[C@@H]3OCC(=O)N[C@@H]3C2)C1` [Example 115], the IC50 was found to be 3 nM.

`O=C1CO[C@H]2CCN(C(=O)N3CCC(Cc4nc5c(s4)CCC5)CC3)C[C@H]2N1` [Example 16]: the IC50 is 208 nM.

With `O=C1CO[C@H]2CCN(C(=O)N3CC(COc4ccc(C(F)(F)F)cc4F)C3)C[C@H]2N1` [Example 47], the IC50 turned out to be 5 nM.

For `O=C1CO[C@H]2CCN(C(=O)N3CCN(Cc4ccc(Cl)cc4)CC3)C[C@H]2N1` [Example 22], the IC50 turned out to be 2100 nM.

Take `O=C1CO[C@H]2CCN(C(=O)N3CCC(COc4ccc(F)cc4Cl)CC3)C[C@H]2N1` [Example 24]: the IC50 was determined as 4 nM.

As to `O=C1CO[C@H]2CCN(C(=O)N3CCC(Oc4ccc(C(F)(F)F)cc4)CC3)C[C@H]2N1` [Example 13], the IC50 was 87 nM.

`O=C1CO[C@H]2CCN(C(=O)N3CC(Cc4ccc(C(F)(F)F)cc4)C3)C[C@H]2N1` [Example 36]: the IC50 came out at 119 nM.

Regarding `O=C1CO[C@H]2CCN(C(=O)N3CC(OCc4ccc(C(F)(F)F)cc4F)C3)C[C@H]2N1` [Example 27], the IC50 came to 7 nM.

Consider `O=C1CO[C@H]2CCN(C(=O)N3CCC(Cc4ccc(C(F)(F)F)cc4)CC3)C[C@H]2N1` [Example 8], for which the half-maximal inhibitory concentration (IC50) came out at 13 nM.

Take `O=C1CO[C@@H]2CCN(C(=O)N3CCC(COc4ccc(C(F)(F)F)nc4)CC3)C[C@@H]2N1` [Example 42, (4aS,8aR)-6-(4-(((6-(Trifluoromethyl)pyridin-3-yl)oxy)methyl)piperidine-1-carbonyl)hexahydro-2H-pyrido[4,3-b][1,4]oxazin-3(4H)-one]: the IC50 was determined as 1200 nM.

For `O=C1CO[C@H]2CCN(C(=O)N3CCC(Cc4ccc(C(F)(F)F)cc4Cl)CC3)C[C@H]2N1` [Example 99], the IC50 stood at 12 nM.

With `O=C1CO[C@H]2CCN(C(=O)N3CCC(OCc4ccccc4Cl)C3)C[C@H]2N1` (stereo partly drawn) [Example 93], the IC50 was found to be 124 nM.

Turning to `O=C1CO[C@H]2CCN(C(=O)N3CC(OCc4cc(C(F)(F)F)ccc4F)C3)C[C@H]2N1` [Example 113], the IC50 is 5 nM.

Regarding `O=C1CO[C@H]2CCN(C(=O)N3CC(OCc4cc(C(F)(F)F)c(F)cc4F)C3)C[C@H]2N1` [Example 112], the IC50 came to 12 nM.

Take `O=C1CO[C@H]2CCN(C(=O)N3CC(COc4ccc(F)cc4Cl)C3)C[C@H]2N1` [Example 28]: the IC50 amounted to 18 nM.

Take `COc1ccc(OCC2CCN(C(=O)N3CC[C@@H]4OCC(=O)N[C@@H]4C3)CC2)c(F)c1` [Example 39, (4aR,8aS)-6-[4-[(2-Fluoro-4-methoxyphenoxy)methyl]piperidine-1-carbonyl]-4,4a,5,7,8,8a-hexahydropyrido[4,3-b][1,4]oxazin-3-one]: the IC50 stood at 116 nM.

For `O=C1CO[C@@H]2CCN(C(=O)N3CCC(Cn4cc(C(F)(F)F)cn4)CC3)C[C@@H]2N1` (stereo in doubt) [Example 26, (4aS,8aR)-6-(4-((4-(Trifluoromethyl)-1H-pyrazol-1-yl)methyl)piperidine-1-carbonyl)hexahydro-2H-pyrido[4,3-b][1,4]oxazin-3(4H)-one], the IC50 was 684 nM.

With `CC(C)(C)c1coc(CC2CCN(C(=O)N3CC[C@@H]4OCC(=O)N[C@@H]4C3)CC2)n1` [Example 4], the IC50 was 92 nM.

On to `O=C1CO[C@H]2CCN(C(=O)N3CC(F)(COc4ccc(F)cc4Cl)C3)C[C@H]2N1` [Example 109], for which the IC50 came out at 223 nM.

Consider `O=C1CO[C@@H]2CCN(C(=O)N3CCC(Cc4ccc(C(F)(F)F)cc4)CC3)C[C@H]2N1` [Example 19], for which the IC50 stood at 1500 nM.

For `O=C1CO[C@H]2CCN(C(=O)N3CC(OCc4ccc(C(F)(F)F)cc4F)(C(F)(F)F)C3)C[C@H]2N1` [Example 110], the IC50 came out at 2180 nM.

Regarding `O=C1CO[C@H]2CCN(C(=O)N3CC(OCc4ccc(C(F)(F)F)cc4)C3)C[C@H]2N1` [Example 76], the IC50 is 8 nM.
